Measurements reported in patent US5877185A, “Synergistic compositions useful as anti-tumor agents” (priority 1995, dated 1999).
“Also recorded” adds a separate entry of the source.

Legend:
[1] = weakly basic conditions; cited from earlier work
[2] = tested on: MDA 468; assay: effect of nitroso- and nitro-compounds in mammary cancer cells (monolayer), MDA 468; type: cell-based, human; settings: drug exposure 24-48 hours
Protocol: II. I50 and LD100 Values for Nitroso- and Nitro-Compounds in (A) Mammary Cancer Cells (monolayer cultures) and in (B) L-1210 Murine Leukemia Cells (suspension culture).
Seeding was at 2×10^4 or 0.8×10^4 cells/cm^2, drugs were added 6-18 hours after seeding, and drug exposure time was 24-48 hours.

[3] = tested on: pADPRT; assay: pADPRT enzyme inactivation; type: biochemical; settings: 2 hr at 25° C.
Protocol: FIG. 1 is a graph comparing the inactivation of pADPRT by NOBA and INOBA. pADPRT inactivation was performed in 20-μl volumes of buffer containing 50 mM Hepes (pH 7.4), 100 mM KCl, 0.5 mM EDTA, pADPRT (0.4 μg/μl) and different concentrations of inactivators. Inactivators were serially diluted in the above buffer from a 20 mM stock solution in DMF. The DMF concentration (2.5%) was kept constant in the inactivation mixes. After 2 hr. at 25° C., aliquots (3 μl) were removed for assay of enzyme activity in a volume of assay mix (200 μl) in which the inactivators were dilute enough not to act as inhibitors. The assay mix consisted of 100 mM Tris (pH 7.7), 14 mM 2-mercaptoethanol, 0.1 mM [^32 P]-NAD^+, 0.2 mg/ml coDNA and 0.1 mg/ml histones. The incorporated ^32 P, proportional to enzyme activity, is plotted as percent of the untreated sample.
NOBA and INOBA were assayed for their respective effects on pADPRT enzyme inactivation and pADPRT zinc content according to the methods described in Buki et al., FEBS Lett. 290:181-185 (1991) at pH 7.0. pADPRT inactivation was performed in 20-μl volumes of buffer containing 50 mM Hepes (pH 7.4), 100 mM KCl, 0.5 mM EDTA, pADPRT (0.4 μg/μl) and different concentrations of inactivators. Inactivators were serially diluted in the above buffer from a 20 mM stock solution in DMF. The DMF concentration (2.5%) was kept constant in the inactivation mixes. […]

[4] = tested on: pADPRT; assay: pADPRT zinc content / zinc ejection; type: biochemical; settings: 25° C.
Protocol: FIG. 2A is a graph comparing the effects of NOBA and INOBA on the enzyme activity and zinc content of pADPRT. Inactivation was performed as described in Example III. In these experiments ^65 Zn^2+ -labeled pADPRT was used. The Zn^2+ content of pADPRT (upper panel) was determined as follows: two parallels of aliquots (4 μl) were pipetted into 500 μl of ice-cold washing solution (50 mM Tris, pH 7.7, 10 mM 2-mercaptoethanol and 0.5 mM EDTA) then filtered onto GF/C disks presoaked in washing solution (cold), quickly washed 4 times with 1 ml of ice-cold washing solution, dried, and the radioactivity determined. The protein-bound ^65 Zn^2+ is shown as percent of the untreated sample. Enzyme assays (lower panel) were performed as in FIG. 1.
For the release of Zn^2+ from transblotted pADPRT, the enzyme (3 μg per lane) was separated on SDS-PAGE, transblotted onto a nitrocellulose membrane, and renatured in the presence of ^65 ZnCl2. […] After incubation, 1 ml of the supernatant was counted for radioactivity, and the strips were washed 3 times with 2 ml of 50 mM Tris-HCl pH 7.4), 0.5 mM EDTA and 10 Mm 2-mercaptoethanol, and then dried and exposed to X-ray film. The intensity of the autoradiographic spots was quantitated by a scanner. […]

[5] = tested on: SIVmac239 or virus isolates in CEM ×174 cells; assay: SIV replication in CEM ×174 cells, SIV p27 core antigen assay; type: cell-based
Text: Infected cell cultures described in FIG. 4 were used for determination of supernatant virus titers by SIV p27 core antigen assay as described in Example XIV. The ordinate represents p27 ELISA performed on day 10 of the assay and the abscissa represents the concentration of INO2 BA alone (rear rows in panels A, B and C) and in combination with BSO (front rows in panels A, B and C).
CEM ×174 cells (3×10^5 /ml) were infected with 3.75 TCID50 /ml (50% tissue culture infectious dosage per ml of cell suspension) stock solution of SIVmac239 or virus isolates from SIVmac239-infected rhesus macaques on day 0. Uniform infection of cells was ensured by the infection of one cell population only per virus preparation. Three days post-infection, the cells were distributed (500 μl/well) into individual wells of a 24-well plate. Fresh medium containing INO2 BA concentrations ranging from 0 to 300 μM and/or BSO concentrations ranging from 0 to 0.25 mM were added to establish final 1-ml reaction volumes, and the cultures were further incubated for 4 days. The wells were then replenished with fresh CEM ×174 cells (3×10^5 /ml), INO2 BA and/or BSO were re-added at the same concentrations as in the original incubates, and incubation was continued for an additional 3 days. This procedure intends to mimic conditions of in vivo chemotherapy. Cell viability and virus titers in the supernatant were determined on day 10 (3 days after the addition of new cells) by the tetrazolium (MTT) method of Hansen et al., J. Immunol. Methods 119:208-210 (1982) and by the SIV p27 and reverse transcriptase (RT) assays described by Chuang et al., FEBS Lett. 326:140-144 (1993), respectively.
SIVmac p27 core antigen levels were determined by an enzyme immunoassay provided by Coulter Corp. (Hialeah, Fla.). The assay was performed according to the manufacturer's specifications.

[6] = reduction by GSH and ascorbate in in vitro chemical tests; type: physicochemical
[7] = tested on: tumor cells; settings: Hakam et al.; cited from earlier work
[8] = tested on: Molt-4 cells; assay: time course of cell killing alone and with BSO, Molt-4; type: cell-based; settings: Molt-4, 2-3 day period; 4 μM drug, 1 mM BSO
Protocol: (§1) Molt 4-cells were seeded at a density of 0.05×10^6 cell/ml in the recommended growth medium in the absence or the presence of drugs as indicated. Cells were incubated at 37° C. in a 5% CO2 atmosphere and proliferation was monitored in 14 hr. by cell counting in a hemacytometer. .smallcircle., untreated control; .circle-solid., treated with 4 μM 4-iodo-3-nitrobenzoic acid; .gradient., treated with 1 mM BSO; .tangle-soliddn., treated with 4 μM-iodo-3-nitrobenzoic acid and 1 mM BSO; .quadrature., treated with 4 μM 4-INO2 BA; .box-solid., treated with 1 mM BSO; .gradient., treated with 4 μM INO2 BA and 1 mM BSO. L-1210 cells were seeded at a density of 0.05×10^6 cells/ml either from untreated stock suspensions or from 24-hr. pretreated (0.2×10^6 cells/ml) suspensions. .smallcircle., untreated control; .circle-solid., treated with […] NOBA; .gradient., treated with 1 mM BSO; .tangle-soliddn., 24-hr pretreatment with 1 mM BSO then treated with 4 μM NOBA.
(§2) A time course of the cell killings by 4-iodo-3-nitrobenzoic acid, INO2 BA and NOBA, each alone and in combination with BSO was obtained. Molt-4 cells were seeded at a density of 0.05×10^6 cells/ml in the recommended growth medium in the absence or presence of drugs as indicated in FIG. 3. Drugs were added to the wells immediately after seeding from 10-40 mM stock solution in DMSO. BSO was added from a 100 mM aqueous stock solution. Cells were incubated at 37° C. in a 5% CO2 atmosphere and proliferation was monitored in 14 hours by cell counting in a hemacytometer.

[9] = tested on: L-1210 cells; assay: time course of cell killing alone and with BSO, L-1210; type: cell-based, murine; settings: L-1210, 2-3 day period; 1 mM BSO
Protocol: as §1, §2

[10] = tested on: cellular GSH; assay: cellular GSH levels under BSO; type: cell-based; settings: at the concentrations applied
Protocol: The role of cellular GSH was determined by the simultaneous addition of INO2 BA and BSO (an inhibitor of GSH biosynthesis, Meister, Pharmacology and Therapeutics 51:155-194 (1991), which at the concentrations applied diminished cellular GSH levels below 5-10% of controls.) The results are tabulated below in Table 3.

[11] = tested on: SIV 23686 (AZT-resistant); assay: AZT-resistant SIV propagation (syncytia formation), SIV 23686; type: cell-based; settings: INO2 BA 0, BSO 0.01 mM
Protocol: (§3) CEM × 174 (3 × 10^5 /ml) were infected with equal doses o
(§4) SIVmac239 or virus isolates from SIVmac239infected rhesus macaques (MMU
(§5) 23686, 22803). Three days postinfection, INO2 BA concentrations
(§6) ranging from 0 to 300 μM with or without BSO were added, and incubated
(§7) for an additional 3 days. Cell cultures were then examined for syncytia
(§8) formation. The number of syncytia in cell cultures was counted in
(§9) arbitration fields under 40× magnification and scored as follows: […]

[12] = tested on: SIV 22803 (AZT-resistant); assay: AZT-resistant SIV propagation (syncytia formation), SIV 22803; type: cell-based; settings: INO2 BA 0, BSO 0.05 mM
Protocol: as §3, §4, §5, §6, §7, §8, §9

[13] = literature; cited from earlier work

## NC(=O)c1cccc(N(O)S(=O)(=O)CC(N)C(=O)O)c1 (centres unmarked)
[1]
  release of C-nitroso molecule: releases the C-nitroso molecule at weakly basic conditions

## O=c1ccc2c(I)c([N+](=O)[O-])ccc2o1 [INO2 BP, 5-iodo-6-nitro-1,2-benzopyrone]
[2]
  I50: 260 Namomoles/cm × 10^4 cells

## NC(=O)c1ccc(I)c(N=O)c1 [INOBA, 4-Iodo-3-Nitrosobenzamide]
[3]
  inactivation of pADPRT, NOBA vs INOBA: more effective inactivator of pADPRT
[4]
  time in which zinc ejection was complete: ≤ 2 h
[5]; with BSO, CEM ×174 cells
  effect of GSH depletion by BSO on inhibitory effect on SIV replication: synergistically enhances
[6]
  reduction to the corresponding hydroxyl amines: rapidly reduced

## Nc1ccc2oc(=O)ccc2c1 [6-amino-1,2-benzopyrone]
[7]
  anti-tumor effects: anti-tumor effects

## CCCCS(=N)(=O)CCC(N)C(=O)O (racemic) [BSO, DL-buthionine sulfoximine, reference compound]
[8]
  effect on cell proliferation: no significant effect
[9]
  effect on cell proliferation: no significant effect
[10]
  cellular GSH level: 5-10 % of controls
[5]; BSO alone, FIG. 5D
  effect on p27 formation / SIV replication: no effect
[11]
  Syncytia: +++ (20-30)
[12]
  Syncytia: ++++ (over 30)
[13]
  toxicity of BSO: very low; also recorded: non-toxicity
